# Measurements published in ChEMBL document CHEMBL4251580, “Exploiting polypharmacology for improving therapeutic outcome of kinase inhibitors (KIs): An update of recent medicinal chemistry efforts” (Eur J Med Chem, 2018).
# Experiments:
# [1] = Inhibition of NF-kappaB (unknown origin) expressed in human U937 cells by luciferase reporter gene assay; assay type: cell-based; settings: U-937
# MDA-MB-231 = assay: Growth inhibition of human MDA-MB-231 cells incubated for 72 hrs by Cell-titer Glo luciferase-based assay; assay type: functional; settings: MDA-MB-231, 72 h
# [2] = molecular target: Epidermal growth factor receptor (Homo sapiens, UniProt P00533); assay: Inhibition of C-terminal His-tagged and N-terminal GST tagged human EGFR (668 to 1210 residues) expressed in baculovirus infected Sf9 cells using KHKKLAEGSAYEEV substrate peptide and gamma-[32P]ATP
# Epidermal growth factor receptor, sequence (P00533 whole entry, the tested form may be a part): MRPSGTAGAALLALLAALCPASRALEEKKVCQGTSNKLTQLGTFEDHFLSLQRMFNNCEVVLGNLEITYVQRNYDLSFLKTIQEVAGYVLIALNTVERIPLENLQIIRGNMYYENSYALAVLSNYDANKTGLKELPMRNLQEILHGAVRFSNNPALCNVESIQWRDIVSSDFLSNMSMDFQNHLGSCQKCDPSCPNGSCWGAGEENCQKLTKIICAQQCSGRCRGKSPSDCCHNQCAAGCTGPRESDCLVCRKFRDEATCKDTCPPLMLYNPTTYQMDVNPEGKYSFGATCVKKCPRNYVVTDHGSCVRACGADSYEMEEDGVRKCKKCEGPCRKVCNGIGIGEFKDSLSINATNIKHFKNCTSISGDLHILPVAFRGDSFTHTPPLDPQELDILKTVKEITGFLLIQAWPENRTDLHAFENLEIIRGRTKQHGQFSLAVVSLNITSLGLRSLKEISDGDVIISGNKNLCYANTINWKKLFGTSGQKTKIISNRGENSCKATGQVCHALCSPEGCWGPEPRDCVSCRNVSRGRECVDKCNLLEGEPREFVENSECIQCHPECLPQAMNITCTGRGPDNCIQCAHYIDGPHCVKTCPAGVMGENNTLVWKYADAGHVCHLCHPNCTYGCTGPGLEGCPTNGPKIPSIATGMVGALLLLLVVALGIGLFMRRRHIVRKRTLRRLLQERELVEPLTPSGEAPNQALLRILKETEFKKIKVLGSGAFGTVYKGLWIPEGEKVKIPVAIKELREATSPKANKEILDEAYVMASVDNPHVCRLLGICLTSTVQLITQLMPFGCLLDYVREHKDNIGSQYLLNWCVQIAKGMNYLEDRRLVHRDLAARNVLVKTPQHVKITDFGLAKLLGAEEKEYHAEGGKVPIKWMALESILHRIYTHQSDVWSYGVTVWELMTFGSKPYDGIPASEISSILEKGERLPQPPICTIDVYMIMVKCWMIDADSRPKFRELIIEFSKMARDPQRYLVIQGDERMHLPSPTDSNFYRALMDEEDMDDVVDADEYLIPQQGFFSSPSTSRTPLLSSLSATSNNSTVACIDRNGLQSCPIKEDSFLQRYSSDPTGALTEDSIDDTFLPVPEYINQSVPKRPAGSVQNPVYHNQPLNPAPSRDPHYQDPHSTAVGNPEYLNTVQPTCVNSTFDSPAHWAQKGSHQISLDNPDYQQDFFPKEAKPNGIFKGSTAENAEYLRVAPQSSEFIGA
smiles,measurement,setting,value
Fc1cc(F)cc(NC(=S)Nc2ccc3ncnc(Nc4cccc(Br)c4)c3c2)c1,IC50,[1],300 nM
same,GI50,MDA-MB-231,1100 nM
same,IC50,[2],60 nM
